This is an account of results in patent publication US9206130B2, “Quinoline derivatives as AXL kinase inhibitors” (Max-Planck-Gesellschaft zur Förderung der Wissenschaften …, priority 2008, dated 2015).

Structures are written as SMILES. Where a name gives a salt, the structure may show the parent alone.

By melting point is commonly meant the temperature, or range, at which the solid turns liquid.

`COc1cc2c(Oc3ccc(NS(=O)(=O)c4ccccc4OC(F)(F)F)cc3F)ccnc2cc1OCCCN` (as salt: hydrochloride) [Example D15, N-{4-[7-(3-Amino-propoxy)-6-methoxy-quinolin-4-yloxy]-3-fluoro-phenyl}-2-trifluoromethoxy-benzenesulfonamide hydrochloride] gave a melting point of 95 to 97 °C. Consider `COc1cc2nccc(Oc3ccc(NS(=O)(=O)c4ccc(F)cc4F)c(F)c3)c2cc1OC`, for which the melting point lay in the range of 212 to 214 °C. The figure for `COc1cc2c(Oc3ccc(NS(=O)(=O)c4cc(F)ccc4F)cc3F)ccnc2cc1OCCN1CCOCC1` is 169 to 173 °C. The figure for `COc1cc2c(Oc3ccc(NS(=O)(=O)c4cccc(-c5ccccc5)c4)cc3F)ccnc2cc1OCCCN1CCCC(C)C1` (stereo not drawn) [Example D37, Biphenyl-3-sulfonic acid (3-fluoro-4-{6-methoxy-7-[3-(3-methyl-piperidin-1-yl)-propoxy]-quinolin-4-yloxy}-phenyl)-amide] is 190 to 192 °C; for `COc1cc(S(=O)(=O)Nc2ccc(Oc3ccnc4cc(OCCCN5CCCC(C)C5)c(OC)cc34)c(F)c2)ccc1F` (stereo not drawn) [Example D38, 4-Fluoro-N-(3-fluoro-4-{6-methoxy-7-[3-(3-methyl-piperidin-1-yl)-propoxy]-quinolin-4-yloxy}-phenyl)-3-methoxy-benzenesulfonamide] it is 98 to 101 °C; for `COc1cc(S(=O)(=O)Nc2ccc(Oc3ccnc4cc(OCCCN5CCOCC5)c(OC)cc34)c(F)c2)ccc1F` [Example D44, 4-Fluoro-N-{3-fluoro-4-[6-methoxy-7-(3-morpholin-4-yl-propoxy)-quinolin-4-yloxy]-phenyl}-3-methoxy-benzenesulfonamide] it is 90 to 93 °C.

`COc1cc2c(Oc3ccc(NS(=O)(=O)c4ccccc4[N+](=O)[O-])cc3F)ccnc2cc1OCCCN1CCOCC1` [Example D46, N-{3-Fluoro-4-[6-methoxy-7-(3-morpholin-4-yl-propoxy)-quinolin-4-yloxy]-phenyl}-2-nitro-benzenesulfonamide] came in with a melting point of 166 to 168 °C. Next, `COc1cc2nccc(Oc3ccc(NS(=O)(=O)c4cccc5ccccc45)cc3)c2cc1OC` [Example A104, Naphthalene-1-sulfonic acid [4-(6,7-dimethoxy-quinolin-4-yloxy)-phenyl]-amide]: 250 to 253 °C; `COc1cc2c(Oc3ccc(NS(=O)(=O)c4c(Cl)cccc4Cl)cc3F)ccnc2cc1OCCCN1CCOCC1` [Example D47, 2,6-Dichloro-N-{3-fluoro-4-[6-methoxy-7-(3-morpholin-4-yl-propoxy)-quinolin-4-yloxy]-phenyl}-benzenesulfonamide]: 194 to 196 °C.

For `COc1cc2nccc(Oc3ccc(NS(=O)(=O)c4cccc5cccnc45)c(F)c3)c2cc1OC` [Example A8, Quinoline-8-sulfonic acid [4-(6,7-dimethoxy-quinolin-4-yloxy)-2-fluoro-phenyl]-amide], the melting point lay within 255 to 257 °C. The figure for `COc1cc2nccc(Oc3ccc(NS(=O)(=O)c4cc(Br)cc(C(F)(F)F)c4)c(F)c3)c2cc1OC` [Example A47, 3-Bromo-N-[4-(6,7-dimethoxy-quinolin-4-yloxy)-2-fluoro-phenyl]-5-trifluoromethyl-benzenesulfonamide] is 214 to 216 °C; for `COc1cc2nccc(Oc3ccc(NS(=O)(=O)c4c(Cl)cccc4Cl)c(F)c3)c2cc1OC` it is 217 to 218 °C. Next, `COc1cc2c(Oc3ccc(NS(=O)(=O)c4cccc(-c5ccccc5)c4)cc3F)ccnc2cc1OCCCN` (as salt: hydrochloride) [Example D03, Biphenyl-3-sulfonic acid {4-[7-(3-amino-propoxy)-6-methoxy-quinolin-4-yloxy]-3-fluoro-phenyl}-amide hydrochloride]: 198 to 202 °C. Next, `COc1cc2nccc(Oc3ccc(NS(=O)(=O)c4ccccc4C(F)(F)F)cc3)c2cc1OC`: 224 to 227 °C; `COc1cc2c(Oc3ccc(NS(=O)(=O)c4cccc(-c5ccccc5)c4)cc3F)ccnc2cc1OCCCN1CCOCC1` [Example D42, Biphenyl-3-sulfonic acid {3-fluoro-4-[6-methoxy-7-(3-morpholin-4-yl-propoxy)-quinolin-4-yloxy]-phenyl}-amide]: 210 to 212 °C. With `COc1cc2c(Oc3ccc(NS(=O)(=O)c4cc(F)ccc4F)cc3F)ccnc2cc1OCCCN1CCCC(C)C1` (stereo not drawn) [Example D36, 2,5-Difluoro-N-(3-fluoro-4-{6-methoxy-7-[3-(3-methyl-piperidin-1-yl)-propoxy]-quinolin-4-yloxy}-phenyl)-benzenesulfonamide], the melting point was 103 to 107 °C. In the case of `COc1cc2c(Oc3ccc(NS(=O)(=O)c4ccccc4F)cc3F)ccnc2cc1OCCCN1CCOCC1` [Example D45, 2-Fluoro-N-{3-fluoro-4-[6-methoxy-7-(3-morpholin-4-yl-propoxy)-quinolin-4-yloxy]-phenyl}-benzenesulfonamide], the melting point is 179 to 181 °C. Compound `COc1cc2c(Oc3ccc(NS(=O)(=O)c4ccc(Cl)cc4F)cc3F)ccnc2cc1OCCCN1CCOCC1` [Example D43, 4-Chloro-2-fluoro-N-{3-fluoro-4-[6-methoxy-7-(3-morpholin-4-yl-propoxy)-quinolin-4-yloxy]-phenyl}-benzenesulfonamide] gave a melting point of 200 to 203 °C. Next, `COc1cc2nccc(Oc3ccc(NS(=O)(=O)c4cccc(F)c4)c(F)c3)c2cc1OC`: 233 to 235 °C; `COc1cc2nccc(Oc3ccc(NS(=O)(=O)c4ccc(OCc5c(C)noc5C)cc4)cc3)c2cc1OC` [Example A87, N-[4-(6,7-Dimethoxy-quinolin-4-yloxy)-phenyl]-4-(3,5-dimethyl-isoxazol-4-ylmethoxy)-benzenesulfonamide]: 188 to 190 °C. The figure for `COc1cc2c(Oc3ccc(NS(=O)(=O)c4cc(F)ccc4F)cc3F)ccnc2cc1OCCCN1CCOCC1` [Example D41, 2,5-Difluoro-N-{3-fluoro-4-[6-methoxy-7-(3-morpholin-4-yl-propoxy)-quinolin-4-yloxy]-phenyl}-benzenesulfonamide] is 192 to 195 °C; for `COc1cc2nccc(Oc3ccc(NS(=O)(=O)c4cccc(C(F)(F)F)c4)c(F)c3)c2cc1OC` it is 230 to 231 °C; for `COc1cc2c(Oc3ccc(NS(=O)(=O)c4ccccc4C(F)(F)F)cc3F)ccnc2cc1OCCCN` (as salt: hydrochloride) it is 197 to 199 °C. Next, `COc1cc2c(Oc3ccc(NS(=O)(=O)c4cc(F)ccc4F)cc3F)ccnc2cc1OCCCN1CCC(C)CC1`: 223 to 225 °C; `COc1cc2c(Oc3ccc(NS(=O)(=O)c4ccccc4Br)cc3F)ccnc2cc1OCCCN1CCOCC1` [Example D49, 2-Bromo-N-{3-fluoro-4-[6-methoxy-7-(3-morpholin-4-yl-propoxy)-quinolin-4-yloxy]-phenyl}-benzenesulfonamide]: 185 to 188 °C; `COc1cc2nccc(Oc3ccc(NS(=O)(=O)c4ccccc4C(F)(F)F)cc3OC)c2cc1OC`: 198 to 199 °C. In turn, `COc1cc2nccc(Oc3ccc(NS(=O)(=O)c4ccccc4C(F)(F)F)cc3C)c2cc1OC` returned a melting point of 209 to 211 °C. Next, `COc1cc2c(Oc3ccc(NS(=O)(=O)c4ccccc4C(F)(F)F)cc3F)ccnc2cc1OCCCN1CCCC(C)C1` (stereo not drawn) [Example D35, N-(3-Fluoro-4-{6-methoxy-7-[3-(3-methyl-piperidin-1-yl)-propoxy]-quinolin-4-yloxy}phenyl)-2-trifluoromethyl-benzenesulfonamide]: 118 to 121 °C; `COc1cc2c(Oc3ccc(NS(=O)(=O)c4ccccc4C(F)(F)F)cc3F)ccnc2cc1OCCN1CCOCC1`: 178 to 180 °C; `COc1cc2c(Oc3ccc(NS(=O)(=O)c4cccc5ccccc45)cc3F)ccnc2cc1OCCCN1CCOCC1` [Example D48, Naphthalene-1-sulfonic acid {3-fluoro-4-[6-methoxy-7-(3-morpholin-4-yl-propoxy)-quinolin-4-yloxy]-phenyl}-amide]: 108 to 111 °C. Next, `COc1cc2nccc(Oc3ccc(NS(=O)(=O)c4ccccc4C(F)(F)F)c(F)c3)c2cc1OC`: 237 to 239 °C; `COc1cc2nccc(Oc3ccc(NS(=O)(=O)c4cc(F)ccc4F)c(F)c3)c2cc1OC`: 232 to 234 °C; `COc1cc2nccc(Oc3ccc(NS(=O)(=O)c4cccc(OC(F)(F)F)c4)c(F)c3)c2cc1OC` [Example A35, N-[4-(6,7-Dimethoxy-quinolin-4-yloxy)-2-fluoro-phenyl]-3-trifluoromethoxy-benzenesulfonamide]: 221 to 223 °C. The figure for `COc1cc2nccc(Oc3ccc(NS(=O)(=O)c4cc(Cl)c(O)c(Cl)c4)c(C)c3)c2cc1OC` [Example A105, 3,5-Dichloro-N-[4-(6,7-dimethoxy-quinolin-4-yloxy)-2-methyl-phenyl]-4-hydroxy-benzenesulfonamide] is 255 to 259 °C; for `COc1cc2nccc(Oc3ccc(NS(=O)(=O)c4ccccc4OC(F)(F)F)c(F)c3)c2cc1OC` it is 204 to 206 °C. In turn, `COc1cc2nccc(Oc3ccc(NS(=O)(=O)c4ccc(Cl)c(Cl)c4)c(F)c3)c2cc1OC` [Example A49, 3,4-Dichloro-N-[4-(6,7-dimethoxy-quinolin-4-yloxy)-2-fluoro-phenyl]-benzenesulfonamide] registered a melting point of 225 to 227 °C. Next, `COc1cc2nccc(Oc3ccc(NS(=O)(=O)c4ccccc4)c(F)c3)c2cc1OC`: 234 to 235 °C. Next, `COc1cc2nccc(Oc3ccc(NS(=O)(=O)c4ccc5c(c4)CC(=O)N5C)cc3F)c2cc1OC` [Example A125, 1-Methyl-2-oxo-2,3-dihydro-1H-indole-5-sulfonic acid [4-(6,7-dimethoxy-quinolin-4-yloxy)-3-fluoro-phenyl]-amide]: 163 to 165 °C; `COc1cc2nccc(Oc3ccc(NS(=O)(=O)c4cc(Cl)ccc4Cl)c(F)c3)c2cc1OC`: 228 to 230 °C.
